Series [1] in a line: physchem. As to conditions: organic solvent or mixture. The format is physicochemical. An excerpt:
The amount of the Cl-C4 alkanol employed in the process of the invention should be sufficient to solubilize both the polymeric carrier and chlorthalidone. It will be apparent to those skilled in the art that best results will be achieved on a large scale using as high a concentration of chlorthalidone as is possible. Thus, optimally the process should be carried out using concentrations of chlorthalidone at the upper limits of solubility.

The conditions of series [2]: water; cited from earlier work.
Series [3] in a line: stability of the solution to ether formation. The format is physicochemical. As to conditions: chlorthalidone added to solution of polymeric carrier in C1-C4 alkanol. The text has this:
The polymeric carrier polyvinylpyrrolidone (PVP), used in the process of the invention must be pharmaceutically acceptable and be substantially soluble both in water and in the particular Cl-C4 alkanol selected for use in the process. Moreover, the polymeric carrier must be capable of forming a solid state dispersion of chlorthalidone after removal of the alkanol, and be capable of suppressing ether formation arising from reaction of the chlorthalidone with the Cl-C4 alkanol, as discussed above. The ability of a polymeric carrier to suppress ether formation can be determined routinely by dissolving chlorthalidone in a Cl-C4 alkanol, such as methanol, in a glass container in the presence and absence of the polymeric carrier and analyzing aliquots of the solution (taken at varying times up to 24 hours) for chlorthalidone content by HPLC techniques. An acceptable loss of chlorthalidone is up to about 2% after 24 hours at 40°C. The general use of polyvinylpyrrolidone (PVP), to prepare solid state dispersions of pharmaceutical active ingredients is described by the Chiou reference, supra. […] It is believed that PVP suppresses the formation of ethers primarily by complexing trace amounts of heavy metal ions thus making them unavailable for catalysis. […]

Converted amounts (≈) assume the structure as drawn.

Consider 1 compound from patent EP0125420B1, “Water soluble dispersions of chlorthalidone and process for preparing them” (Boehringer Ingelheim Pharmaceuticals Inc., priority 1983, dated 1984).

A word on the thermodynamic solubility: it is the concentration in solution at equilibrium with solid. What is called aqueous solubility is the concentration that dissolves in the medium under given conditions.

On to `NS(=O)(=O)c1cc(C2(O)NC(=O)c3ccccc32)ccc1Cl` (stereo not drawn) [Chlorthalidone], for which the thermodynamic solubility in series [1] (ethanol) turned out to be 15.5 mg/mL (≈ 45.8 mM); in series [1] (isopropanol), 3.2 mg/mL (≈ 9.45 mM); in series [1] (methanol) it was 76.1 mg/mL (≈ 225 mM). Further, the aqueous solubility in series [2] is around 0.12 mg/mL (≈ 0.354 mM). Moreover, the “stable to ether formation” value in series [3] (continued heating) is reported as “at least one hour”; in series [3] (room temperature) it was “at least four days”.
